According to US8507545B2, “Cytotoxic T cell activator comprising EP4 agonist” (National University Corporation, Hamamatsu University …, priority 2007, dated 2013):

Key:
B16 melanoma cells = experiment: Life-prolonging effect in melanoma-inoculated mice; format: in vivo, B6 mice; conditions: 10 animals in group
Description: 2×10^5 B16 melanoma cells were transplanted to B6 mice in the same manner as Example 3. On day 5 after transplantation, the right auricle of each B6 mouse was treated with each test substance (TRP-2 (10 μg for one side of each auricle), Compound A-(1) (20 μL of 100 μM solution for one side of each auricle) by the same method as Example 3. Ten days later, the left auricle was treated in the same manner, and the mice in each experimental group were examined for mortality. Three experimental groups were established: (1) a group undergoing TS alone, (2) a group undergoing TS followed by application of Compound A-(1), and (3) a group undergoing TS followed by application of TRP-2 and Compound A-(1) (10 animals in each group).

TRP-2-specific CTLs = experiment: Activation of cytotoxic T cells in cervical lymph nodes after tape stripping (TRP-2 tetramer flow cytometry); format: in vivo, C57BL/6(B6) mice; conditions: for Ratio of TRP-2-specific CTLs: Example 1(1), cervical lymph nodes one week after application, relative to total mononucleocytes as 100
Description: (§1) The corneal layers of the auricles of C57BL/6(B6) mice were destroyed by repeating a stripping procedure using an adhesive tape in 10 cycles, and an antigen peptide or EP4 agonist was applied as a test substance. The antigen peptide used was a melanoma-specific antigen peptide (Accord K.K. Peptide Business Department; hereinafter abbreviated TRP-2) in solution in 70% ethanol; 10 μg was applied to one side of each auricle. The EP4 agonist used was 11α,15α,-dihydroxy-9-oxo-16-(3-methoxymethylphenyl)-17,18,19,20-tetranol-3,7-dithiaprost-13E-enoic acid (hereinafter abbreviated Compound A-(1)) in solution in a mixed solvent of acetone:olive oil=10:1; 20 μL of 100 μM solution was applied to one side of each auricle. One week after application of the test substance, the cervical lymph nodes were removed. The frequency of TRP-2-specific CTLs was determined relative to the total number of mononucleocytes in the cervical lymph nodes as 100 by a flowcytometric analysis (FACScaliber; Becton, Dickinson and Company.) with a tetramer (Medical & Biological Laboratories Co., Ltd.). Four experimental groups were established: (1) a group undergoing tape stripping (hereinafter abbreviated TS) alone, (2) a group undergoing TS followed by application of TRP-2, (3) a group undergoing TS followed by application of Compound A-(1), and (4) a group undergoing TS followed by application of TRP-2 and Compound A-(1).
Note that the melanoma-specific antigen peptide TRP-2 was synthesized on the basis of a partial sequence described in the aforementioned Non-patent Document 1 (SEQ ID NO. 1) (Accord K.K. Peptide Business Department).
The same procedures as Example 1(1) were followed except that the EP4 agonists used were 4-[(2-{(2R)-2-[(1E,3S)-4-(4-fluorophenyl)-3-hydroxybut-1-enyl]-5-oxopyrrolidin-1-yl}ethyl)sulfanyl]butanoic acid (hereinafter abbreviated Compound L-(1)) and 4-{[2-((1R,2R,3R)-3-hydroxy-2-{(1E,3S)-3-hydroxy-4-[3-(methoxymethyl)phenyl]but-1-enyl}-5-oxocyclopentyl)ethyl]sulfanyl}butanoic acid (hereinafter abbreviated Compound M-(1)); the action of each compound to activate cytotoxic T cells was evaluated. Four experimental groups were established: (1) a group undergoing TS alone, (2) a group undergoing TS followed by application of TRP-2, (3) a group undergoing TS followed by application of TRP-2 and Compound L-(1), and (4) a group undergoing TS followed by application of TRP-2 and Compound M-(1).

HSVgpB-specific CTLs = experiment: Activation of cytotoxic T cells in cervical lymph nodes after tape stripping (HSVgpB pentamer flow cytometry); format: in vivo, C57BL/6(B6) mice; conditions: Example 1(3), TS followed by application of HSVgpB and the EP4 agonist
Description: as §1
The same procedures as Example 1(1) were followed except that the antigen peptide used was the herpes simplex virus-specific antigen HSV glycoprotein B (hereinafter abbreviated HSVgpB), and that a flowcytometric analysis with a pentamer (ProImmune Company) was performed, and the action of each compound to activate cytotoxic T cells was evaluated. Five experimental groups were established: (1) a group undergoing TS alone, (2) a group undergoing TS followed by application of HSVgpB, (3) a group undergoing TS followed by application of HSVgpB and Compound A-(1), (4) a group undergoing TS followed by application of HSVgpB and Compound L-(1), and (5) a group undergoing TS followed by application of HSVgpB and Compound M-(1).
Note that the herpes simplex virus-specific antigen peptide HSVgpB was synthesized on the basis of the partial sequence shown by SEQ ID NO. 2 (Virology, Vol. 195, pp. 62-70, (1993)) (ProImmune Company).

## COCc1cccc(C[C@H](O)/C=C/[C@H]2[C@H](O)CC(=O)[C@@H]2SCCCSCC(=O)O)c1 [Compound A-(1), 11α,15α,-dihydroxy-9-oxo-16-(3-methoxymethylphenyl)-17,18,19,20-tetranol-3,7-dithiaprost-13E-enoic acid]
B16 melanoma cells; day 16 after B16 melanoma cells inoculation, TS followed by Compound A-(1)
  number of surviving individuals: 10 animals
B16 melanoma cells; day 16 after B16 melanoma cells inoculation, TS followed by TRP-2 and Compound A-(1)
  number of surviving individuals: 10 animals
B16 melanoma cells; day 21 after B16 melanoma cells inoculation, TS followed by Compound A-(1)
  number of surviving individuals: 10 animals
B16 melanoma cells; day 21 after B16 melanoma cells inoculation, TS followed by TRP-2 and Compound A-(1)
  number of surviving individuals: 10 animals
B16 melanoma cells; day 24 after B16 melanoma cells inoculation, TS followed by Compound A-(1)
  number of surviving individuals: 10 animals
B16 melanoma cells; day 24 after B16 melanoma cells inoculation, TS followed by TRP-2 and Compound A-(1)
  number of surviving individuals: 10 animals
B16 melanoma cells; day 27 after B16 melanoma cells inoculation, TS followed by Compound A-(1)
  number of surviving individuals: 7 animals
B16 melanoma cells; day 27 after B16 melanoma cells inoculation, TS followed by TRP-2 and Compound A-(1)
  number of surviving individuals: 10 animals
B16 melanoma cells; day 29 after B16 melanoma cells inoculation, TS followed by Compound A-(1)
  number of surviving individuals: 7 animals
B16 melanoma cells; day 29 after B16 melanoma cells inoculation, TS followed by TRP-2 and Compound A-(1)
  number of surviving individuals: 10 animals
B16 melanoma cells; day 31 after B16 melanoma cells inoculation, TS followed by Compound A-(1)
  number of surviving individuals: 7 animals
B16 melanoma cells; day 31 after B16 melanoma cells inoculation, TS followed by TRP-2 and Compound A-(1)
  number of surviving individuals: 10 animals
B16 melanoma cells; day 33 after B16 melanoma cells inoculation, TS followed by Compound A-(1)
  number of surviving individuals: 7 animals
B16 melanoma cells; day 33 after B16 melanoma cells inoculation, TS followed by TRP-2 and Compound A-(1)
  number of surviving individuals: 10 animals
B16 melanoma cells; day 35 after B16 melanoma cells inoculation, TS followed by Compound A-(1)
  number of surviving individuals: 2 animals
B16 melanoma cells; day 35 after B16 melanoma cells inoculation, TS followed by TRP-2 and Compound A-(1)
  number of surviving individuals: 10 animals
B16 melanoma cells; day 37 after B16 melanoma cells inoculation, TS followed by Compound A-(1)
  number of surviving individuals: 2 animals
B16 melanoma cells; day 37 after B16 melanoma cells inoculation, TS followed by TRP-2 and Compound A-(1)
  number of surviving individuals: 10 animals
B16 melanoma cells; day 38 after B16 melanoma cells inoculation, TS followed by Compound A-(1)
  number of surviving individuals: 2 animals
B16 melanoma cells; day 38 after B16 melanoma cells inoculation, TS followed by TRP-2 and Compound A-(1)
  number of surviving individuals: 10 animals
B16 melanoma cells; day 40 after B16 melanoma cells inoculation, TS followed by Compound A-(1)
  number of surviving individuals: 0 animals
B16 melanoma cells; day 40 after B16 melanoma cells inoculation, TS followed by TRP-2 and Compound A-(1)
  number of surviving individuals: 8 animals
B16 melanoma cells; day 42 after B16 melanoma cells inoculation, TS followed by Compound A-(1)
  number of surviving individuals: 0 animals
B16 melanoma cells; day 42 after B16 melanoma cells inoculation, TS followed by TRP-2 and Compound A-(1)
  number of surviving individuals: 8 animals
B16 melanoma cells; day 44 after B16 melanoma cells inoculation, TS followed by Compound A-(1)
  number of surviving individuals: 0 animals
B16 melanoma cells; day 44 after B16 melanoma cells inoculation, TS followed by TRP-2 and Compound A-(1)
  number of surviving individuals: 5 animals
B16 melanoma cells; day 46 after B16 melanoma cells inoculation, TS followed by Compound A-(1)
  number of surviving individuals: 0 animals
B16 melanoma cells; day 46 after B16 melanoma cells inoculation, TS followed by TRP-2 and Compound A-(1)
  number of surviving individuals: 4 animals
B16 melanoma cells; day 48 after B16 melanoma cells inoculation, TS followed by Compound A-(1)
  number of surviving individuals: 0 animals
B16 melanoma cells; day 48 after B16 melanoma cells inoculation, TS followed by TRP-2 and Compound A-(1)
  number of surviving individuals: 2 animals
B16 melanoma cells; day 50 after B16 melanoma cells inoculation, TS followed by Compound A-(1)
  number of surviving individuals: 0 animals
B16 melanoma cells; day 50 after B16 melanoma cells inoculation, TS followed by TRP-2 and Compound A-(1)
  number of surviving individuals: 2 animals
B16 melanoma cells; day 52 after B16 melanoma cells inoculation, TS followed by Compound A-(1)
  number of surviving individuals: 0 animals
B16 melanoma cells; day 52 after B16 melanoma cells inoculation, TS followed by TRP-2 and Compound A-(1)
  number of surviving individuals: 2 animals
B16 melanoma cells; day 55 after B16 melanoma cells inoculation, TS followed by Compound A-(1)
  number of surviving individuals: 0 animals
B16 melanoma cells; day 55 after B16 melanoma cells inoculation, TS followed by TRP-2 and Compound A-(1)
  number of surviving individuals: 2 animals
B16 melanoma cells; day 57 after B16 melanoma cells inoculation, TS followed by Compound A-(1)
  number of surviving individuals: 0 animals
B16 melanoma cells; day 57 after B16 melanoma cells inoculation, TS followed by TRP-2 and Compound A-(1)
  number of surviving individuals: 1 animals
TRP-2-specific CTLs; TS followed by application of TRP-2 and Compound A-(1)
  Ratio of TRP-2-specific CTLs: 0.63
TRP-2-specific CTLs; TS followed by application of the test substance alone
  Ratio of TRP-2-specific CTLs: 0.55
TRP-2-specific CTLs; TS followed by application of Compound A-(1)
  ratio of TRP-2-specific CTLs in cervical lymph nodes compared with the group undergoing TS alone: increased
HSVgpB-specific CTLs
  Ratio of HSVgpB-specific CTLs: 0.41
